In brackets after ≈: the same amount, converted by molar mass.

Test [1] has as its system NB4 (acute promyelocytic leukemia, AML). The experiment in a line: MTT growth inhibition of leukemia cells, 72 h. Format: cell-based, human. In a few lines: (§1)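 Growth inhibition is scored by MTT after a 72 h exposure at 37 °C in 5% CO2, with cells plated at 6000 per well in RPMI 1640 containing 10% fetal bovine serum. IC50 comes from viability relative to untreated cells.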

In test [2] the test system is Kasumi-1 (acute myeloid leukemia M2 type, AML-M2). The experiment in a line: MTT growth inhibition of leukemia cells, 72 h. Format: cell-based, human. A digest of the protocol:
as §1

In test [1] (Homo sapiens, MTT), `COC(=O)C[C@](O)(CCCC(C)(C)OC(C)=O)C(=O)O[C@@H]1C(OC)=C[C@]23CCCN2CCc2cc4c(cc2[C@H]13)OCO4` [BS-HH-002, 6-acetylhomoharringtonine] showed an IC50 of 2 ng/mL (≈ 3.4 nM) and an IC90 of 6 ng/mL (≈ 10.2 nM). For the same molecule, the “improvement of anti-NB4 activity compared with homoharringtonine” value in test [1] (vs HHT) is reported as “more than 3 fold”. In test [2] (Homo sapiens, Kasumi 1, MTT), this molecule returned an IC50 of 2 ng/mL (≈ 3.4 nM) and an IC90 of 7 ng/mL (≈ 11.9 nM). Moreover, the “improvement of anti-Kasumi-1 activity compared with homoharringtonine” value in test [2] (vs HHT) was “more than 3.4 fold”.

The values above are taken from US9428519B2, “Acylated derivative of homoharringtonine, preparation method therefor, and application thereof” (HANGZHOU BENSHENG PHARMACEUTICAL CO., LTD., priority 2011, dated 2016).
